Source: patent US8088808B2, “Substituted N-phenyl-bipyrrolidine carboxamides and therapeutic use thereof” (Sanofi, priority 2007, dated 2012)
Structures can show the parent of a compound that is named as a salt.

How the values were obtained:
[1] = target: MCH receptor (Homo sapiens, UniProt Q99705); assay: MCH receptor [125J]-ligand binding filtration assay; settings: 10 μM test compound; percent inhibition of ligand binding
Experimental: The activity of the compounds of this invention at the MCH receptor site, if any was measured by the procedures as set forth below. • Test Compounds The compounds of this invention were stored in a 96-well microtiter plates (1 μL, 10 mM, 100% DMSO). Each of the test sample was diluted with 249 μL of 100% DMSO (dilution 1:250). […] Blank: Assay buffer containing 0.4% DMSO were transferred to the dilution microtiter plates for blanks • Assay Procedure: The filter plates with […] of 0.5% PEI-solution/well were incubated for 2 hours at room temperature. PEI was removed by vacuum filtration just before pipetting (Univac Polyfiltronic/Whatman). The solution of the compound as prepared above (50 μL), or MCH ([…]) or Puffer/DMSO (positive control) were added to 96-well round bottom microtiter plate. Then 50 μl of [^125J]-ligand solution was added followed by 100 μl of membrane suspension. The plates were closed with the lids, and incubated for 60 min. at 25° C. The samples were transferred to GF/B filter plate. The reaction mixture was removed by vacuum filtration, washed 4× with 300 μL ice-cold washing buffer and the washing solution was removed by vacuum filtration. The rubber layer at the bottom of the plate was then removed and the filters were dried over night at room temperature. 25 μL of scintillation cocktail was added and the plates were sealed and, plate frames were added and incubated for 1 hour at room temperature. The radioactivity was then measured, settings ^125J standard, 30 sec./well.

[2] = target: rhesus (Macaca Mulatta) H3 receptor (Macaca mulatta, UniProt Q865E1); assay: Rhesus H3 radioligand binding assay ([3H]-Methylhistamine displacement, WGA SPA beads); set-up: species or system rhesus monkey (Macaca Mulatta); settings: Table 2; procedure of Example 42
Experimental: (Genbank #AY231164). Stably transfected cultures were amplified in tissue culture flasks by standard tissue culture methods and induced to express rhesus H3 by exposure to 500 ng/ml tetracycline (Cellgro) for 24 hours. After induction, cells were dissociated from flasks utilizing Cell Stripper (Cellgro). Cells were centrifuged (1K×g, 5 min) and pellet frozen in an ethanol-dry ice bath to disrupt cell membranes. Frozen cell pellet was re-suspended in 5 mM HEPES (pH 7.4, Invitrogen) at 10 ml/1000 cm2 of harvested cells. The cell suspension was drawn through an 18 gauge needle (2-3×) followed by a 23 gauge needle (2-3×) to further disrupt cell membranes. The cell suspension was centrifuged (40K×g, 30 min). Cell membrane pellet was re-suspended in 5 mM HEPES (pH 7.4, Invitrogen) at a final protein concentration of 10 mg/ml. Rhesus H3 membranes were stored under liquid nitrogen prior to use in [3H]-Methylhistamine and GTPγS radioligand binding assays.
Rhesus H3 radioligand binding assay was performed using rhesus H3 receptor membranes (prepared as described above), [3H]-Methylhistamine (Perkin Elmer) and WGA SPA beads (wheat germ agglutinin scintillation proximity assay) beads (Amersham). The assay was performed in 96-well Opti-Plates (Packard). Each reaction contained 50 μl rhesus H3 membranes (20-30 μg total protein), 50 μl WGA SPA beads (0.1 μg) and 50 μl of 83 Ci/mmol [^3H]-Methylhistamine (final concentration 2 nM) and 50 μl of tested compound. The compounds of this invention and/or vehicle were diluted with binding buffer from 10 mM DMSO stocks. Assay plates were sealed with TopSeal (Perkin Elmer) and mixed on shaker (25° C., 1 hour). Assay plates were read on TopCount scintillation counter (Packard). Results were analyzed by Hill transformation and Ki values were determined by Cheng-Prusoff equation.

Sequence of MCH receptor (Q99705 whole entry): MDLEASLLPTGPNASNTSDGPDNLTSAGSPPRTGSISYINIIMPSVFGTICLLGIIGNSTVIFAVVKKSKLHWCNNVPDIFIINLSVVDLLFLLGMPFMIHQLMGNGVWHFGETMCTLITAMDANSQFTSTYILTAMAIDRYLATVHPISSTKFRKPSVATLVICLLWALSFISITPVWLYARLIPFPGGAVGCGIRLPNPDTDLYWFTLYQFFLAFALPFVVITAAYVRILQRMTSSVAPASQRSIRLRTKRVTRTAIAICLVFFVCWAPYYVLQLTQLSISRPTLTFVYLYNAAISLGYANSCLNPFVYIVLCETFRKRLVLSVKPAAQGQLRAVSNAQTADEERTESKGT
Sequence of rhesus (Macaca Mulatta) H3 receptor (Q865E1 1-445): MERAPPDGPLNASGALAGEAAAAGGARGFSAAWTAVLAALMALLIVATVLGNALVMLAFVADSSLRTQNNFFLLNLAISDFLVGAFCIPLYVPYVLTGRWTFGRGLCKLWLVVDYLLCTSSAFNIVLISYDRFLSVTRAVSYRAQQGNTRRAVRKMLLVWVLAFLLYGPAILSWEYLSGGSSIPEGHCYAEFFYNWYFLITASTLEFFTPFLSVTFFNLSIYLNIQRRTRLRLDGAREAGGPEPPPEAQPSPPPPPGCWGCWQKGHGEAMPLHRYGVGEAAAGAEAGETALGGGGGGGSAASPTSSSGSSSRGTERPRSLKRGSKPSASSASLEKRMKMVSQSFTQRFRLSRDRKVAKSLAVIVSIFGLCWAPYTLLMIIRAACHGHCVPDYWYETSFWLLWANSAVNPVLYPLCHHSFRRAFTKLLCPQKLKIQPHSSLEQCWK

| Compound | inhibition at 10 µM [1] [%] | Ki [2] [nM] |
| --- | --- | --- |
| Cc1cc(C(=O)Nc2ccc(N3CC[C@H](N4CCC[C@@H]4C)C3)c(C)c2)n[nH]1 (stereo in doubt) [Example 22, 5-Methyl-1H-pyrazole-3-carboxylic acid [3-methyl-4-(2-methyl-[1,3′]bipyrrolidinyl-1′-yl)-phenyl]-amide trifluoroacetate] | 5.6 | 17.3 |
| Cc1cc(N2CC[C@H](N3CCC[C@@H]3C)C2)ccc1NC(=O)c1c(C)noc1C [Example 1, 3,5-Dimethyl-isoxazole-4-carboxylic acid [2-methyl-4-(2(2S)-methyl-[1,3′(3′S)]bipyrrolidinyl-1′-yl)-phenyl]-amide] | 0.7 | 0.4 |
| Cc1cc(N2CC[C@H](N3CCC[C@@H]3C)C2)ccc1NC(=O)C1CCCCC1 [Example 2, Cyclohexanecarboxylic acid [2-methyl-4-(2S-methyl-[1,3′S]bipyrrolidinyl-1′-yl)-phenyl]-amide trifluoro-acetate] | -2.1 | 0.4 |
| Cc1cc(N2CC[C@H](N3CCC[C@@H]3C)C2)ccc1NC(=O)C1CC2CCC1C2 (stereo partly drawn) [Example 3, Bicyclo[2.2.1]heptane-2-carboxylic acid [2-methyl-4-(2S-methyl-[1,3′S]bipyrrolidinyl-1′-yl)-phenyl]-amide trifluoro acetate] | -0.8 | 0.6 |
| Cc1cc(N2CC[C@H](N3CCC[C@@H]3C)C2)ccc1NC(=O)C1CCOCC1 [Example 4, Tetrahydro-pyran-4-carboxylic acid [2-methyl-4-(2(2S)-methyl-[1,3′(3′S)]bipyrrolidinyl-1′-yl)-phenyl]-amide] | -1.6 | 1 |
| Cc1cc(C(=O)Nc2ccc(N3CC[C@H](N4CCC[C@@H]4C)C3)cc2C)on1 [Example 5, 3-Methyl-isoxazole-5-carboxylic acid [2-methyl-4-(2S-methyl-[1,3′ S]bipyrrolidinyl-1′-yl)-phenyl]-amide trifluoro-acetate] | 3.1 | 1.1 |
| Cc1cc(NC(=O)c2c(C)noc2C)ccc1N1CCC(N2CCCC2C)C1 (stereo not drawn) [Example 7, 3,5-Dimethyl-isoxazole-4-carboxylic acid [3-methyl-4-(2-methyl-[1,3′]bipyrrolidinyl-1′-yl)-phenyl]-amide trifluoro-acetate] | 5 | 3.2 |
| Cc1cc(N2CCC(N3CCCC3C)C2)ccc1NC(=O)CC1CCCC1 (stereo not drawn) [Example 8, 2-Cyclopentyl-N-[2-methyl-4-(2-methyl-[1,3′]bipyrrolidinyl-1′-yl)-phenyl]-acetamide trifluoro-acetate] | 1.4 | 8.4 |
| CC1CCCN1C1CCN(c2ccc(NC(=O)C3CCOCC3)cc2)C1 (stereo not drawn) [Example 9, Tetrahydro-pyran-4-carboxylic acid [4-(2-methyl-[1,3′]bipyrrolidinyl-1′-yl)-phenyl]-amide trifluoro-acetate] | -2.8 | 8.7 |
| Cc1cc(N2CCC(N3CCCC3C)C2)ccc1NC(=O)C1CC1 (stereo not drawn) [Example 10, Cyclopropane carboxylic acid [2-methyl-4-(2-methyl-[1,3′]bipyrrolidinyl-1′-yl)-phenyl]-amide trifluoro-acetate] | 4 | 9.6 |
| Cc1cc(NC(=O)C2CCOCC2)ccc1N1CCC(N2CCCC2C)C1 (stereo not drawn) [Example 11, Tetrahydro-pyran-4-carboxylic acid [3-methyl-4-(2-methyl[1,3′]bipyrrolidinyl-1′-yl)-phenyl]-amide trifluoro-acetate] | 2.7 | 17 |
| Cc1cc(N2CCC(N3CCCC3C)C2)ccc1NC(=O)C1C[C@@H]2CC[C@H]1C2 (stereo partly drawn) [Example 12, (1S,4R)-Bicyclo[2.2.1]heptane-2-carboxylic acid [2-methyl-4-(2-methyl-[1,3′]bipyrrolidinyl-1′-yl)-phenyl]-amide trifluoro-acetate] | -2.8 | 19.9 |
| CC1CCCN1C1CCN(c2ccc(NC(=O)c3cn[nH]c3)cc2)C1 (stereo not drawn) [Example 13, 1H-Pyrazole-4-carboxylic acid [4-(2-methyl-[1,3′]bipyrrolidinyl-1′-yl)-phenyl]-amide trifluoro-acetate] | 4.8 | 22.1 |
| Cc1cc(C(=O)Nc2ccc(N3CC[C@H](N4CCC[C@@H]4C)C3)cc2C)n[nH]1 [Example 14, 5-Methyl-1H-pyrazole-3-carboxylic acid [2-methyl-4-(2(2S)-methyl-[1,3′(3′S)]bipyrrolidinyl-1′-yl)-phenyl]-amide] | 28.3 | 4.7 |
| Cc1cc(N2CC[C@H](N3CCC[C@@H]3C)C2)ccc1NC(=O)c1cc(C)n(C)n1 [Example 15, 1,5-Dimethyl-1H-pyrazole-3-carboxylic acid [2-methyl-4-(2(2S)-methyl-[1,3′(3′S)]bipyrrolidinyl-1′-yl)-phenyl]-amide hydrochloride] | 10.3 | 10.8 |
| Cc1cc(N2CC[C@H](N3CCC[C@@H]3C)C2)ccc1NC(=O)C1C(C)(C)C1(C)C [Example 16, 2,2,3,3-Tetramethyl-cyclopropanecarboxylic acid [2-methyl-4-(2(S)-methyl-[1,3′(S)]bipyrrolidinyl-1′-yl)-phenyl]-amide trifluoroacetate] | 5.8 | 0.8 |
| Cc1cc(N2CCC(N3CCCC3C)C2)ccc1NC(=O)C1C(C)(C)C1(C)C (stereo not drawn) [Example 17, 2,2,3,3-Tetramethyl-cyclopropanecarboxylic acid [2-methyl-4-(2-methyl-[1,3′]bipyrrolidinyl-1′-yl)-phenyl]-amide trifluoroacetate] | 11.5 | 37.3 |
| Cc1cc(N2CCC(N3CCCC3C)C2)ccc1NC(=O)c1c(C)noc1C (stereo not drawn) [Example 18, 3,5-Dimethyl-isoxazole-4-carboxylic acid [2-methyl-4-(2-methyl-[1,3′]bipyrrolidinyl-1′-yl)-phenyl]-amide trifluoroacetate] | -2 | 2.6 |
| Cc1cc(N2CC[C@H](N3CCC[C@@H]3C)C2)ccc1NC(=O)c1ccco1 [Example 19, Furan-2-carboxylic acid [2-methyl-4-(2(S)-methyl-[1,3′(S)]bipyrrolidinyl-1′-yl)-phenyl]-amide trifluoroacetate] | 6 | 3.9 |
| Cc1cc(C(=O)Nc2ccc(N3CCC(N4CCCC4C)C3)cc2C)n[nH]1 (stereo not drawn) [Example 20, 5-Methyl-1H-pyrazole-3-carboxylic acid [2-methyl-4-(2-methyl-[1,3′]bipyrrolidinyl-1′-yl)-phenyl]-amide trifluoroacetate] | 24.3 | 30.9 |
| Cc1cc(N2CC[C@H](N3CCC[C@@H]3C)C2)ccc1NC(=O)CC1CCCC1 [Example 21, 2-Cyclopentyl-N-[2-methyl-4-(2(S)-methyl-[1,3′(S)]bipyrrolidinyl-1′-yl)-phenyl]-acetamide trifluoroacetate] | 1.9 | 0.9 |
| Cc1cc(NC(=O)C2C[C@@H]3CC[C@H]2C3)ccc1N1CCC(N2CCCC2C)C1 (stereo partly drawn) [Example 23, (1S,4R)-Bicyclo[2.2.1]heptane-2-carboxylic acid [3-methyl-4-(2-methyl-[1,3′]bipyrrolidinyl-1′-yl)-phenyl]-amide trifluoroacetate] | 11.2 | 130 |
| Cc1cc(N2CCC(N3CCCC3C)C2)ccc1NC(=O)C1CCOCC1 (stereo not drawn) [Example 24, Tetrahydro-pyran-4-carboxylic acid [2-methyl-4-(2-methyl[1,3′]bipyrrolidinyl-1′-yl)-phenyl]-amide trifluoroacetate] | 8.6 | 6.8 |
| CC1CCCN1C1CCN(c2ccc(NC(=O)C3C(C)(C)C3(C)C)cc2)C1 (stereo not drawn) [Example 25, 2,2,3,3-Tetramethyl-cyclopropanecarboxylic acid [4-(2-methyl-[1,3′]bipyrrolidinyl-1′-yl)-phenyl]-amide trifluoroacetate] | 15 | 144 |
